According to PubChem BioAssay (NCI):
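Method: 48-hour compound exposure of cells in 96-well plates, five concentrations, linear interpolation of endpoints. TGI: total growth inhibition.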

How the values were obtained:
Assay in all cases: growth of human tumour cells (NCI), 48 h
[1] = tested on: A498 renal
[2] = tested on: A549 NSCLC
[3] = tested on: ACHN renal
[4] = tested on: HOP-92 NSCLC
[5] = tested on: LXFL 529 NSCLC
[6] = tested on: OVCAR-3 ovarian
[7] = tested on: SK-MEL-5 melanoma
[8] = tested on: SNB-19 CNS
[9] = tested on: TK-10 renal
[10] = tested on: DU-145 prostate

Row | SMILES | TGI [1] [µM] | TGI [2] [µM] | TGI [3] [µM] | TGI [4] [µM] | TGI [5] [µM] | TGI [6] [µM] | TGI [7] [µM] | TGI [8] [µM] | TGI [9] [µM] | TGI [10] [µM]
1 | C(=C\c1c2oc(-c3ccccc3)cc(-c3ccccc3)c-2c2ccccc12)/C=C1\c2ccccc2-c2c(-c3ccccc3)cc(-c3ccccc3)[o+]c21 | > 100 | > 100 | > 100 | > 100 | > 100 | > 100 | > 100 | > 100 | > 100 | –
2 | O=C(O)/C=C/c1ccncc1 | > 100 | – | > 100 | > 100 | > 100 | > 100 | > 100 | > 100 | > 100 | –
3 | COC(=O)C(NC(=O)c1ccccc1)C(c1c(O)cc(O)cc1O)P(=O)(OC)OC (centres undefined) | > 100 | > 100 | > 100 | > 100 | > 100 | – | > 100 | > 100 | > 100 | –
4 | N#CC(NNC(=O)c1ccccc1O)c1c(O)ccc2ccccc12 (centres undefined) | > 66 | 26.8 | 22.2 | 40.7 | 33.4 | 23.8 | 10.4 | > 100 | 36.5 | 18.4
5 | COC(=O)CC1CC2(C(=O)OC)c3[nH]c4ccccc4c3CCN2C1=O (centres undefined) | > 100 | > 100 | > 100 | > 100 | > 100 | > 100 | > 100 | > 100 | > 100 | –
6 | Cc1ccc(NCCN(C)C)c2c(=O)c3cc(O)ccc3sc12 | 21.9 | 8.08 | 7.31 | 14.4 | 21.7 | 18.6 | 9.88 | 16.1 | 33.9 | 15.6
7 | O=C(c1ccccc1)c1cc(Cl)ccc1NCn1nnc2ccccc21 | > 100 | > 100 | > 100 | > 100 | > 100 | > 100 | – | > 100 | > 100 | –
8 | O=C(/C(=C/c1ccc(O)cc1)c1ccccc1)c1ccccc1 | 32 | 41.7 | 29.6 | 18.3 | 35.7 | – | 28.3 | – | 48.5 | –
9 | CC(=O)[C@]1(O)Cc2c(O)c3c(c(O)c2[C@@H](OC2CC(N)C(O)C(C)O2)C1)C(=O)c1c(OCc2ccccc2)cccc1C3=O (some centres undefined) | 21.8 | 6.93 | 4.91 | 22.6 | 2.38 | 6.87 | 5.84 | 9.04 | 25 | 3.4
